Results as given in BindingDB's records for doi:10.1021/jm00043a011 (University of Athens, 1994).
*1 amine or outer side, *2 acyl side, *3 side chain or, on linkers, in order; H or OH if unused. Where a SMILES comes first, the peptide text is derived from it. [ ]: non-standard residue; d: D form. PheΨ(PO2HCH2)Gly = O=C(CCP(=O)(O)[C@H](Cc1ccccc1)N[*:1])[*:2]; X2 = O=C(CCP(=O)(O)[C@@H](Cc1ccccc1)N[*:1])[*:2]; X1 = O=C(CCP(O)(O)=C(Cc1ccccc1)N[*:1])[*:2]; Nle = CCCC[C@H](N)C(=O)O

Experiment: Binding constant containing a pseudophenylalanine residue

Compound | Ki [µM]
CCCCC1NC(=O)[C@H]2CCCN2C(=O)CCP(=O)(O)[C@@H](Cc2ccccc2)NC(=O)[C@@H]2CCCN2C(=O)CCNC1=O (stereo partly drawn) [(6S,9S,22R)-6-Benzyl-19-butyl-5-hydroxy-5-oxo-1,7,13,17,20-pentaaza-5lambda*5*-phospha-tricyclo[20.3.0.0*9,13*]pentacosane-2,8,14,18,21-pentaone] | 0.09

Experiment: as above
Remark: another data set of the same source

Compound | Ki [µM]
CCCC[C@@H]1NC(=O)[C@@H]2CCCN2C(=O)CCP(O)(O)=C(Cc2ccccc2)NC(=O)[C@@H]2CCCN2C(=O)CNC1=O (cyclo(GP[X1]P[Nle])) | 0.12

Experiment: Inhibition of bacterial collagenase from corynebacterium rathaii

Compound | Ki [µM]
O=C1NCC(=O)N2CCC[C@H]2C(=O)N[C@@H](Cc2ccccc2)P(=O)(O)CCC(=O)N2CCC[C@@H]12 | 9
COC(=O)[C@@H]1CSSC[C@H](NC(C)=O)C(=O)N2CCC[C@H]2C(=O)N[C@H](Cc2ccccc2)P(=O)(O)CCC(=O)N2CCC[C@H]2C(=O)N1 | 3
COC(=O)[C@H]1CSSC[C@@H](NC(C)=O)C(=O)N2CCC[C@@H]2C(=O)N[C@@H](Cc2ccccc2)P(=O)(O)CCC(=O)N2CCC[C@@H]2C(=O)N1 | 45
CCCC[C@@H]1NC(=O)[C@@H]2CCCN2C(=O)CCP(=O)(O)[C@H](Cc2ccccc2)NC(=O)[C@@H]2CCCN2C(=O)CNC1=O | 0.18
O=C1NCC(=O)N2CCC[C@H]2C(O)N=C(Cc2ccccc2)P(O)(O)=CCC(=O)N2CCC[C@@H]12 (stereo partly drawn) | 6
C[C@@H]1NC(=O)[C@@H]2CCCN2C(=O)[C@H](C)NC(=O)CCP(=O)(O)[C@H](Cc2ccccc2)NC(=O)[C@@H]2CCCN2C(=O)CNC1=O (cyclo(AGP[PheΨ(PO2HCH2)Gly]AP)) | 20
C[C@@H]1NC(=O)[C@@H]2CCCN2C(=O)[C@H](C)NC(=O)CCP(=O)(O)[C@@H](Cc2ccccc2)NC(=O)[C@@H]2CCCN2C(=O)CNC1=O (cyclo(AGP[X2]AP)) | 12
CCCC[C@@H]1NC(=O)[C@@H]2CCCN2C(=O)CCP(O)(O)=C(Cc2ccccc2)NC(=O)[C@@H]2CCCN2C(=O)CNC1=O (cyclo(GP[X1]P[Nle])) | 0.12
CCCC[C@@H]1NC(=O)[C@@H]2CCCN2C(=O)CCP(=O)(O)[C@H](Cc2ccccc2)NC(=O)[C@@H]2CCCN2C(=O)[C@H](CO)NC1=O (cyclo([Nle]SP[PheΨ(PO2HCH2)Gly]P)) | 40
CCCC[C@@H]1NC(=O)[C@@H]2CCCN2C(=O)CCP(O)(O)=C(Cc2ccccc2)NC(=O)[C@@H]2CCCN2C(=O)[C@H](CO)NC1=O (cyclo([Nle]SP[X1]P)) | 25
CCCCC1NC(=O)[C@H]2CCCN2C(=O)CCP(=O)(O)[C@@H](Cc2ccccc2)NC(=O)[C@@H]2CCCN2C(=O)CCNC1=O (stereo partly drawn) [(6S,9S,22R)-6-Benzyl-19-butyl-5-hydroxy-5-oxo-1,7,13,17,20-pentaaza-5lambda*5*-phospha-tricyclo[20.3.0.0*9,13*]pentacosane-2,8,14,18,21-pentaone] | 0.09
